One may read the IC50 as the concentration that gives 50% inhibition.

The source of these data is US11970469B2 (Oxford University Innovation Limited, priority 2018, dated 2024).

Assay [1] has as its target GST-human KRas166 (G12V) GPPNHP (Homo sapiens, UniProt P01116, G12V). The experiment in a line: KRas small-molecule screening by SPR (BIACORE T200). The assay is classed as binding. The arrangement: made in house; host or cells: E. coli C41(DE3); key: SPR response units (RU). The conditions noted are these: compounds at final concentration of 100 uM; immobilised KRAS166 (G12V) GPPNHP; no unit printed (method speaks of response units). How it is done: For SPR assays pGEX-KRAS(G12V) plasmid was transformed into E. coli C41(DE3). Bacterial cells were cultured at 37° C. to an OD600 of 0.6 and induced with IPTG (final 0.1 mM) at 18° C. over night. The GST fusion proteins were extracted from bacteria pellets after cell disruption in 140 mM NaCl, 2.7 mM KCl, 10 mM NaH2PO4, 1.8 mM KH2PO4, 1 mM EDTA, 2 mM MgCl2 pH 7.4 and purified by glutathione-sepharose column chromatography (GE Healthcare), eluting with 50 mM Tris-HCl pH8.0, 10 mM reduced glutathione, 1 mM DTT, 2 mM MgCl2. The eluted proteins were dialysed against 50 mM Tris-HCl pH8.0, 1 mM DTT, 2 mM MgCl2 and concentrated to 10 mg/ml using a Biomax-30 ULTRAFREE-15 centrifugal filter device (Millipore). Purified KRAS protein was loaded with GPPNHP as described elsewhere (Pacold et al., 2000). Loaded protein was then purified by gel filtration on a HiLoad Superdex-75 HR column (GE Healthcare) in 1×PBS pH7.4, 5 mM MgCl2 and concentrated for storage. Protocol for KRas small-molecule screening and affinity measurements by SPR
To a previously immobilized CM5 chip (GE Healthcare BR-1005-30) with anti GST antibody via amine coupling method, GST in channel 1 and GST-human KRas166 (G12V) GPPNHP in channel 2 were immobilised. GST was immobilised between 2,000 and 5,000 Response units. KRAS166 (G12V) was immobilized between 10,000 to 15,000 Response Units.
In a 96 well plate, compounds were diluted in […], 5 mM MgCl2 and 5% DMSO Buffer to a final concentration of 100 uM. DCAI was used as positive control. Experiment also included a solvent correction curve for 5% DMSO. Screening and evaluation of the protein immobilization and the compounds screening was done accordingly to the BIACORE T200 control and evaluation software.
Calculations for how many response units are required for a 1:1 ratio of compound/protein interaction are shown below. • Protein immobilisation: 10,000 RU; average fragment 300 Da in size. Rmax=(MWA/MWL)×RL×SM • MWA is the molecular weight of the analyte in Da • MWL is the molecular weight of the ligand in Da • RL is the immobilization level in RU • SM is the molar stoichiometry (assume 1:1) • Rmax=300/47,500×10,000×1 • Rmax=63 RU. BRET2 Cell Assay
For orientation: Surface plasmon resonance follows binding to a sensor surface in real time, without labels.

The test system of the next assay is RASG12D/CRAF FL. The experiment in a line: BRET2 cell assay with BRET-based RAS biosensor (RAS-effector) in HEK293T. To be noted: 10 uM compound, 20 hours. How it is done: 650,000 HEK293T were seeded in each well of a 6 well plate. 24 hours later, cells were transfected with an appropriated BRET-based RAS biosensor (i.e. RAS-effector) using Lipofectamine 2000 transfection reagent (Thermo-Fisher). Cells were detached 24 hours later and washed with PBS and seeded in a white 96 well plate (clear bottom, PerkinElmer, cat #6005181) in OptiMEM no phenol red medium (Life Technologies) complemented with 4% FBS. Cells were left for 4 hours at 37° C. before adding compounds. Stock compounds were held at 10 mM in 100% DMSO and diluted in OptiMEM no red phenol+4% FBS to reach 10× the final concentration (2% DMSO for each concentration). The final concentrations in the cells were 0, 5, 10 and 20 μM (therefore the intermediate 10× concentrations were 0, 50, 100 and 200 μM. 10 μL of 10× compounds were added in each well of the 96 well plate to 0, 5, 10 and 20 μM final concentrations (with final 0.2% DMSO each). Quadruplicates were performed for each point. Cells were left for an additional 20 hours at 37° C. before the BRET2 signal reading directly after addition of Coelenterazine 400a substrate (10 μM final) to cells (Cayman Chemicals, cat #16157). BRET2 reading was carried out on an Envision instrument (2103 Multilabel Reader, PerkinElmer) with the BRET2 Dual Emission optical module (515 nm±30 and 410 nm±80; PerkinElmer).
Background: BRET reads energy transfer from a luciferase to a nearby fluorophore.

For assay [2], the system named is DLD1 cells (ATCC CCL-221). The experiment in a line: Cell viability assay, DLD-1 (CellTiter-Glo). The conditions noted are these: DLD-1 cells; for IC50: Homo sapiens, 72 h, dose response 5, 10, 15, 20 μM; for effect on DLD-1 viability over the range of concentrations: 72 hour, 5, 10, 15, 20 μM (FIG. 1). Type of assay: cell-based. As to the method: DLD1 cells (ATCC CCL-221) are cultured in RPMI-1640 medium plus 10% foetal calf serum and 2 mM L-glutamine at 37° C. 5% CO2. Cells are plated onto white clear bottom 96-well plates (5000 cells/well in 200 μl media) and left to adhere overnight at 37° C., 5% CO2. Next day, test compound (1 μl at 200× concentration in 100% DMSO) is added to give final test compound concentration 1× in 0.5% DMSO. After 72 h of incubation at 37° C. 5% CO2, 20 μl CellTiter-Glo reagent (Promega G7572) is added into each well. Plates are incubated at room temperature with shaking for 30 min and then luminescence is read using a PheraStar plate reader. The concentration of compounds that decrease cell viability by 50% is calculated from dose response curves generated using Dotmatics data analysis software Results
(In general: In ATP-based viability assays light output follows the ATP content of the culture.)

In turn, `COc1cccc(-c2ccc(Nc3ccc(C(=O)NCC4CCNCC4)cc3)cc2)c1` [Example 20, 4-((3′-methoxy-[1,1′-biphenyl]-4-yl)amino)-N-(piperidin-4-ylmethyl)benzamide] registered an SPR in assay [1] of 1426.

Molecule `COc1cccc(-c2ccc(Nc3ccc(C(=O)NCC4CCN(C)CC4)cc3)cc2)c1` [Example 21, 4-((3′-methoxy-[1,1′-biphenyl]-4-yl)amino)-N-((1-methylpiperidin-4-yl)methyl)benzamide] showed an SPR in assay [1] of 1583.

Regarding `COc1cccc(-c2ccc(Nc3cccc(C(=O)NCC4CCNCC4)c3)cc2)c1` [Example 17, 3-((3′-methoxy-[1,1′-biphenyl]-4-yl)amino)-N-(piperidin-4-ylmethyl)benzamide], the SPR in assay [1] came to 396.

The molecule `COc1cc(-c2ccc(Nc3ccc(CN(C)C)cc3)cc2)ccc1F` [Example 4, N-(4-((dimethylamino)methyl)phenyl)-4′-fluoro-3′-methoxy-[1,1′-biphenyl]-4-amine] registered an SPR in assay [1] of 80. Also, the “BRET RASG12D/CRAF FL % Inhibition (10 uM)” value with RASG12D/CRAF FL was found to be 24%.

Take `COc1cccc(-c2ccc(Nc3cc(C)cc(C)c3)c(OC)c2F)c1` [Example 8, N-(3,5-dimethylphenyl)-2-fluoro-3,3′-dimethoxy-[1,1′-biphenyl]-4-amine]: the SPR in assay [1] turned out to be 30. Further, the “BRET RASG12D/CRAF FL % Inhibition (10 uM)” value in the assay on RASG12D/CRAF FL turned out to be 0%.

Consider `COc1cccc(-c2ccc(Nc3cc(C)cc(C)c3)cc2)c1` [Example 9, N-(3,5-dimethylphenyl)-3′-methoxy-[1,1′-biphenyl]-4-amine], for which, in assay [1], the SPR is on record as 28. In the assay on RASG12D/CRAF FL, the “BRET RASG12D/CRAF FL % Inhibition (10 uM)” value stood at 2%.

Regarding `COc1cccc(-c2ccc(Nc3ccc(CN(C)C)cc3)c(OC)n2)c1` [Example 14, N-(4-((dimethylamino)methyl)phenyl)-2-methoxy-6-(3-methoxyphenyl)pyridin-3-amine], the SPR in assay [1] is 152. The “BRET RASG12D/CRAF FL % Inhibition (10 uM)” value with RASG12D/CRAF FL turned out to be 42%.

Turning to `COc1cccc(-c2ccc(Nc3cc(CN(C)C)ccc3C)cc2)c1` [Example 11, N-(5-((dimethylamino)methyl)-2-methylphenyl)-3′-methoxy-[1,1′-biphenyl]-4-amine], the SPR in assay [1] came to 69. Moreover, the “BRET RASG12D/CRAF FL % Inhibition (10 uM)” value with RASG12D/CRAF FL is 1%.

Regarding `COc1nc(-c2cccc3c2OCCO3)ccc1Nc1ccc(CN(C)C)cc1` [Abd-7, reference compound], the IC50 in assay [2] worked out at 8.2 µM.

In assay [1], `COc1cc(-c2ccc(Nc3ccc(CN(C)C)cc3)cc2)ccc1C` [Example 18, N-(4-((dimethylamino)methyl)phenyl)-3′-methoxy-4′-methyl-[1,1′-biphenyl]-4-amine] returned an SPR of 119. In addition, in the assay with RASG12D/CRAF FL, the “BRET RASG12D/CRAF FL % Inhibition (10 uM)” value is on record as 13%.

As to `O=C(NCC1COc2ccccc2O1)c1ccco1` (centres unmarked) [Abd-2, reference compound], in assay [2], the “effect on DLD-1 viability over the range of concentrations” value was “does not affect DLD-1 viability”.

In assay [1], “N-(3-((2,6-dimethylmorpholino)methyl)phenyl)-3′-methoxy-[1,1′-biphenyl]-4-amine [Example 13]” returned an SPR of 43. For the same molecule, in the assay with RASG12D/CRAF FL, the “BRET RASG12D/CRAF FL % Inhibition (10 uM)” value is recorded as 9%.

As to `COc1cccc(-c2ccc(Nc3ccc(CN(C)C)cc3)cn2)c1` [Example 16, N-(4-((dimethylamino)methyl)phenyl)-6-(3-methoxyphenyl)pyridin-3-amine], in assay [1], the SPR turned out to be 209. In the assay on RASG12D/CRAF FL, the “BRET RASG12D/CRAF FL % Inhibition (10 uM)” value stood at 0%.

`COc1cc(C)cc(-c2ccc(Nc3ccc(CN(C)C)cc3)cc2)c1` [Example 7, N-(4-((dimethylamino)methyl)phenyl)-3′-methoxy-5′-methyl-[1,1′-biphenyl]-4-amine]: the SPR in assay [1] is given as 264. In the assay with RASG12D/CRAF FL, the “BRET RASG12D/CRAF FL % Inhibition (10 uM)” value was 6%.

For `COc1cccc(-c2ccc(Nc3ccc(CN(C)C)cc3)c(OC)c2F)c1` [Example 3, N-(4-((dimethylamino)methyl)phenyl)-2-fluoro-3,3′-dimethoxy-[1,1′-biphenyl]-4-amine], half-maximal inhibition in assay [2] (IC50) required 4.5 µM. Also, the SPR in assay [1] was 177. The “BRET RASG12D/CRAF FL % Inhibition (10 uM)” value in the assay on RASG12D/CRAF FL was 26%.

As to `COc1cccc(-c2ccc(Nc3cc(C(=O)N(C)C)ccc3C)cc2)c1` [Example 10, 3-((3′-methoxy-[1,1′-biphenyl]-4-yl)amino)-N,N,4-trimethylbenzamide], the SPR in assay [1] is listed as 28. Also, the “BRET RASG12D/CRAF FL % Inhibition (10 uM)” value with RASG12D/CRAF FL is on record as 0%.

Take `COc1cccc(-c2ccc(Nc3cccc(CN(C)C)c3)c(OC)n2)c1` [Example 15, N-(3-((dimethylamino)methyl)phenyl)-2-methoxy-6-(3-methoxyphenyl)pyridin-3-amine]: in assay [1], the SPR is 84. In addition, in the assay with RASG12D/CRAF FL, the “BRET RASG12D/CRAF FL % Inhibition (10 uM)” value was determined as 35%.

`COc1cc(F)cc(-c2ccc(Nc3ccc(CN(C)C)cc3)cc2)c1` [Example 6, N-(4-((dimethylamino)methyl)phenyl)-3′-fluoro-5′-methoxy-[1,1′-biphenyl]-4-amine]: the SPR in assay [1] is reported as 245. For the same molecule, in the assay on RASG12D/CRAF FL, the “BRET RASG12D/CRAF FL % Inhibition (10 uM)” value is 22%.

For `COc1cccc(-c2ccc(Nc3ccc(CN(C)C)cc3)cc2)c1` [Example 1, N-(4-((dimethylamino)methyl)phenyl)-3′-methoxy-[1,1′-biphenyl]-4-amine], the midpoint of inhibition in assay [2], the IC50, lay at 5.3 µM. For the same molecule, the SPR in assay [1] is recorded as 230. In addition, the “BRET RASG12D/CRAF FL % Inhibition (10 uM)” value in the assay on RASG12D/CRAF FL was determined as 24%.

The molecule `COc1cccc(-c2ccc(Nc3cccc(CN4CC(C)OC(C)C4)c3)cc2)c1` (centres unmarked) [Example 12, N-(3-((2,6-dimethylmorpholino)methyl)phenyl)-3′-methoxy-[1,1′-biphenyl]-4-amine] showed an SPR in assay [1] of 55. The “BRET RASG12D/CRAF FL % Inhibition (10 uM)” value with RASG12D/CRAF FL is 0%.

As for `COc1cccc(-c2cccc(CC3(C(=O)NCCn4ccnc4)CCOCC3)c2)c1` [PPIN-2, reference compound], the “effect on DLD-1 viability over the range of concentrations” value in assay [2] was “does not affect DLD-1 viability”.

As for `COc1cc(-c2ccc(Nc3ccc(CN(C)C)cc3)cc2)cc(F)c1F` [Example 5, N-(4-((dimethylamino)methyl)phenyl)-3′,4′-difluoro-5′-methoxy-[1,1′-biphenyl]-4-amine], the SPR in assay [1] stood at 127. The “BRET RASG12D/CRAF FL % Inhibition (10 uM)” value with RASG12D/CRAF FL was 33%.

In assay [1], `COc1cccc(-c2ccc(Nc3ccc(C(=O)NCC4CCN(Cc5ccccc5)CC4)cc3)cc2)c1` [Example 23, N-((1-benzylpiperidin-4-yl)methyl)-4-((3′-methoxy-[1,1′-biphenyl]-4-yl)amino)benzamide] showed an SPR of 99.
